Experimental data taken from ChEMBL document CHEMBL1629617, “IncA/C plasmid-mediated florfenicol resistance in the catfish pathogen Edwardsiella ictaluri” (2009).
In brackets after ≈: the same amount, converted by molar mass.

Key:
Assay type in all cases: functional
Escherichia coli [1] = assay: Antimicrobial activity against Escherichia coli ATCC […] carrying Edwardsiella ictaluri pM07-1 by microdilution assay
Edwardsiella ictaluri [2] = assay: Antimicrobial activity against florfenicol-resistant Edwardsiella ictaluri M07-1 by microdilution assay
Escherichia coli [3] = assay: Antimicrobial activity against Escherichia coli ATCC […] by microdilution assay
Edwardsiella ictaluri [4] = assay: Fold resistance, ratio of MIC for florfenicol-resistance Edwardsiella ictaluri M07-1 to MIC for florfenicol-susceptible Edwardsiella ictaluri

Structure (SMILES)	MIC (Escherichia coli [1])	MIC (Edwardsiella ictaluri [2])	MIC (Escherichia coli [3])	Ratio (Edwardsiella ictaluri [4])
CC1(C)S[C@@H]2[C@H](NC(=O)[C@H](N)c3ccc(O)cc3)C(=O)N2[C@H]1C(=O)O [AMOXICILLIN]	> 32 µg/mL	> 32 µg/mL	4 µg/mL (≈ 10.9 µM)	
CS(=O)(=O)c1ccc([C@@H](O)[C@@H](CF)NC(=O)C(Cl)Cl)cc1 [FLORFENICOL]	256 µg/mL (≈ 715 µM)	128 µg/mL (≈ 357 µM)	4 µg/mL (≈ 11.2 µM)	500
CN[C@@H]1[C@H](O[C@H]2[C@H](O[C@H]3[C@H](O)[C@@H](O)[C@H](N=C(N)N)[C@@H](O)[C@@H]3N=C(N)N)O[C@@H](C)[C@]2(O)C=O)O[C@@H](CO)[C@H](O)[C@H]1O [STREPTOMYCIN]	> 64 µg/mL	> 64 µg/mL	< 32 µg/mL	
CO[C@@]1(NC(=O)Cc2cccs2)C(=O)N2C(C(=O)O)=C(COC(N)=O)CS[C@@H]21 [CEFOXITIN]	> 32 µg/mL	> 32 µg/mL	4 µg/mL (≈ 9.36 µM)	
COc1cc(Cc2cnc(N)nc2N)cc(OC)c1OC [TRIMETHOPRIM]	1 µg/mL (≈ 3.44 µM)	1 µg/mL (≈ 3.44 µM)	0.1 µg/mL (≈ 0.344 µM)	
CO/N=C(\C(=O)N[C@@H]1C(=O)N2C(C(=O)O)=C(CSc3nc(=O)c(O)nn3C)CS[C@H]12)c1csc(N)n1 [CEFTRIAXONE]	32 µg/mL (≈ 57.7 µM)	32 µg/mL (≈ 57.7 µM)	< 0.25 µg/mL	
O=C(O)[C@H]1/C(=C/CO)O[C@@H]2CC(=O)N21 [CLAVULANIC ACID]	16 µg/mL (≈ 80.3 µM)	16 µg/mL (≈ 80.3 µM)	2 µg/mL (≈ 10 µM)	
O=C(N[C@H](CO)[C@H](O)c1ccc([N+](=O)[O-])cc1)C(Cl)Cl [CHLORAMPHENICOL]	> 32 µg/mL	> 32 µg/mL	4 µg/mL (≈ 12.4 µM)	
CN(C)[C@@H]1C(O)=C(C(N)=O)C(=O)[C@@]2(O)C(O)=C3C(=O)c4c(O)cccc4[C@@](C)(O)[C@H]3C[C@@H]12 [TETRACYCLINE]	32 µg/mL (≈ 72 µM)	32 µg/mL (≈ 72 µM)	4 µg/mL (≈ 9 µM)	
CO/N=C(\C(=O)N[C@@H]1C(=O)N2C(C(=O)O)=C(CSC(=O)c3ccco3)CS[C@H]12)c1csc(N)n1 [CEFTIOFUR]	> 8 µg/mL	8 µg/mL (≈ 15.3 µM)	0.5 µg/mL (≈ 0.955 µM)	
Cc1cc(NS(=O)(=O)c2ccc(N)cc2)no1 [SULFAMETHOXAZOLE]	19 µg/mL (≈ 75 µM)	19 µg/mL (≈ 75 µM)	2.4 µg/mL (≈ 9.48 µM)	
CC1(C)S[C@@H]2[C@H](NC(=O)[C@H](N)c3ccccc3)C(=O)N2[C@H]1C(=O)O [AMPICILLIN]	> 32 µg/mL	> 32 µg/mL	4 µg/mL (≈ 11.4 µM)	
